Results: article PMC8778091, “In Silico-Based Discovery of Natural Anthraquinones with Potential against Multidrug-Resistant E. coli” (Pharmaceuticals, 2022)
Values after ≈ are worked out from the molar mass of the structure shown. Like-named read-outs stand apart in the source and are kept apart here.

Legend:
[1] = tested on: E. coli (MDR) b clinical isolate; assay: MIC, agar dilution method, E. coli MDR b; assay type: cell-based; conditions: for MIC (antibiotic susceptibility) E. coli MDRb: Table S3, unpublished data of microbiology unit, Beni Suef general hospital, same procedure; for MIC: Escherichia coli, read-out: MIC E. coli (MDR) b
Experimental: (§1) The selected top-scoring hits were evaluated for their antibacterial effect against two clinical multidrug-resistant strains of enterotoxigenic E. coli. Both isolates were isolated as clinical samples from Beni Suef general hospital, Beni Suef, Egypt. […] MRSA (ATCC 25529) and VRSA (clinical isolate from Beni Suef general hospital, Beni Suef, Egypt) were also used to further evaluate the tested compounds against resistant Gram-positive bacteria.
(§2) Minimum inhibitory concentrations for the test compounds were analyzed following the standard agar dilution method using Meuller-Hinton (MH) agar medium against different Gram-negative and positive bacteria (Table 1). Firstly, the tested compounds were prepared as a stock suspension with a 10 mg/mL final concentration in DMSO. Subsequently, the prepared stocks were diluted in 10 mL molten soft agar (0.5% agar) to obtain a concentration range from 1–64 µg/mL, then mixed and poured over a surface of MH agar (2% agar) plates and left for solidification. Finally, exponentially grown (O.D 600 nm of 0.6) test strains (Table 1) were diluted to a final density of 10^6 CFU/mL in MH broth and spotted (1 µL/spot) over the soft agar. Then, the plates were left for drying and incubated at 37 °C for 18–20 h. Controls were conducted using DMSO seeded soft agar. At the end of the experiment, the MIC for each compound was identified as the minimum concentration that inhibited the growth of the tested strain. The experiments were carried out in triplicates.

[2] = tested on: E. coli (MDR) a clinical isolate; assay: MIC, agar dilution method, E. coli MDR a; assay type: cell-based; conditions: for MIC (antibiotic susceptibility) E. coli MDRa: Table S3, unpublished data of microbiology unit, Beni Suef general hospital, same procedure; for MIC: Escherichia coli
Experimental: as §1, §2

MRSA (ATCC 25529) = assay: MIC, agar dilution method, MRSA; assay type: cell-based, S. aureus; conditions: Staphylococcus aureus, read-out: MIC MRSA
Experimental: as §1, §2

[3] = target: T1, E. coli DAla:D-Ala ligase (Ddl-B) (Escherichia coli, UniProt P07862); assay: Ddl-B enzymatic activity assay (inorganic phosphate, absorbance 650 nm); assay type: biochemical
T1 construct: purchased ProFoldin DDA100KE
Experimental: (§3) Ddl-B and Gyr-B activity assays were performed according to the manufacturer protocols (ProFoldin, Catalogue No. DDA100KE, and Inspiralis, Catalogue No. ATPG001, UK).
Ddl-B enzymatic activity assay is based on measuring the inorganic phosphate generated from the D-Alanine: D-Alanine ligation reaction. The inorganic phosphate is detected by absorbance at 650 nm. The assay reactions and detection were performed by using a 96-well plate. Different concentrations of the test compounds and the reference inhibitor D-cycloserine were prepared in DMSO (from 10 µM to 1000 µM). […] Thereafter, 33 μL of 10× enzyme substrate was prepared by mixing 3.3 μL of 100× enzyme substrate with 29.7 μL of water. Finally, 27 μL of the premix with 3 μL of the 10× enzyme substrate in each well were mixed. After 60 min of incubation at 37 °C, 45 μL of MPA3000 dye was added into the 30 μL of the reaction mixture. After 5 min of incubation, absorbance was measured at 650 nm.

[4] = Cellular toxicity against normal fibroblasts WI-38 (MTT); assay type: cell-based; conditions: human
Experimental: All selected top-scoring compounds were tested for their cellular toxicity against human fibroblasts cell line (WI-38). Cell line (WI-38; ATCC: CCL-75) was maintained in earth RPMI 1640 medium comprising 10% heat-inactivated fetal bovine serum (FBS) and grown at 37 °C and 5% CO2. The cell line was seeded on 96-well cell culture plates (2 × 10^4 cells/well). Cells were stimulated with tested compounds at different concentrations (from 1 to 50 µM) overnight in triplicates. Doxorubicin was used as a positive control. Cell viability was assessed by MTT assay. To normalize cell viability values, each plate included a triplicate of untreated cells considered as 100% viability, and a triplicate of cells treated with a cytotoxic mixture (200 ng/mL TNF, 200 ng/mL CD95L, 200 ng/mL TRAIL, 5 μg/mL CHX, 1% (w/v) sodium azide […]) considered as 0% viability. All other viability values were normalized according to the averages of these triplicates and analyzed by the Graph Pad Prism 5 software (La Jolla, CA, USA).

[5] = target: T2, E. coli gyrase B43 domain (Gyr-B) (Escherichia coli, UniProt P0AES6); assay: biochemical; assay type: biochemical
T2 construct: 20 μL of the enzyme (E. coli gyrase B43 domain; 20 μM concentration); purchased Inspiralis ATPG001
Experimental: as §3
Gyr-B assay measured the capability of the tested compounds to hinder the ATPase activity of Gyr-B subunits. This assay links the hydrolysis of ATP by gyrase to the conversion of NADH to NAD^+, which can be measured by a change in absorbance at 340 nm. The assay reactions and detection were performed using a 96-well plate. […] First, the assay mix was prepared by mixing 20 μL of the assay buffer (50 mM Tris.HCl (pH 7.5), 1 mM EDTA, 5 mM magnesium chloride, 5 mM DTT, 10% (w/v) glycerol), 1 μL phosphoenolpyruvate (80 mM in water), 1.5 μL pyruvate kinase/lactate dehydrogenase stock, 2 μL NADH (20 mM in water), and 58.8 μL water. Thereafter, 63.3 μL of assay mix and 10 μL of the test compound solution and 20 μL of the enzyme (E. coli gyrase B43 domain; 20 μM concentration) were added into the wells and mixed by pipetting. After incubation for 10 min at 25 °C, 6.7 uL of ATP (30 mM) was added to each well. After 60 min of incubation at 25 °C, the absorbance was measured at 340 nm.

VRSA (clinical isolate) = assay: MIC, agar dilution method, VRSA; assay type: cell-based, S. aureus; conditions: for MIC: Staphylococcus aureus, VRSA, read-out: MIC VRSA
Experimental: as §1, §2

[6] = tested on: tested bacterial strains (E. coli MDR, MRSA, VRSA); assay: Antibacterial evaluation, tested bacterial strains taken together; assay type: cell-based
Experimental: as §1, §2

[7] = range 1-64 µg/mL, 37 °C, 18-20 h
[8] = 10-1000 µM tested, read-out: IC50 Ddl-B
[9] = WI-38 normal fibroblast cells, WI-38, 1 to 50 µM overnight, MTT, read-out: CC50
[10] = MDR isolates a and b not distinguished, read-out: MIC E. coli
[11] = range 1-64 µg/mL, 37 °C, 18-20 h, read-out: MIC E. coli (MDR) a
[12] = WI-38, 1 to 50 µM overnight, MTT, read-out: CC50

SMILES	MIC (MRSA (ATCC 25529); [7]) [mg/L]	Ddl-B inhibition in words [3]	IC50 [3, 8] [µM]	Ki ([3]; read-out: Ki Ddl-B) [µM]	MIC [1, 7] [mg/L]	IC50 [5] [µM]	Ki [5] [µM]	MIC [2, 11] [mg/L]	MIC (VRSA (clinical isolate); [7]) [mg/L]	also measured
CC(C)(O/N=C(\C(=O)N[C@@H]1C(=O)N2C(C(=O)[O-])=C(C[n+]3ccccc3)CS[C@H]12)c1csc(N)n1)C(=O)O [Ceftazidime, reference compound]	–	–	–	–	–	–	–	–	–	MIC (antibiotic susceptibility) E. coli MDRb [1]: 16 mg/L (≈ 29.3 µM); MIC (antibiotic susceptibility) E. coli MDRa [2]: 32 mg/L (≈ 58.5 µM)
O=C1c2cccc(O)c2C(=O)c2cccc(O)c21 [Anthrarufin]	2 (≈ 8.33 µM)	comparable to the reference inhibitor D-cycloserine	350 ± 7.4	345 ± 10.1	2 (≈ 8.33 µM)	6.93 ± 1.6	4.1 ± 1.6	2 (≈ 8.33 µM)	> 64	CC50 [4, 9]: 29.7 ± 0.76 µM; Gyr-B inhibition in words [5]: moderate activity; MIC [2, 10]: 2 mg/L (≈ 8.33 µM); MIC VRSA (VRSA (clinical isolate); [7]): >64 mg/L
NCC[C@H](O)C(=O)N[C@@H]1C[C@H](N)[C@@H](O[C@H]2O[C@H](CN)[C@@H](O)[C@H](O)[C@H]2O)[C@H](O)[C@H]1O[C@H]1O[C@H](CO)[C@@H](O)[C@H](N)[C@H]1O [Amikacin, reference compound]	–	–	–	–	–	–	–	–	–	MIC (antibiotic susceptibility) E. coli MDRb [1]: 8 mg/L (≈ 13.7 µM)
N[C@@H]1CON=C1O [D-cycloserine, reference compound]	32 (≈ 313 µM)	–	362	118 ± 11.7	16 (≈ 157 µM)	–	–	16 (≈ 157 µM)	32 (≈ 313 µM)	–
COc1cccc2c1C(=O)c1c(O)c3c(c(O)c1C2=O)C[C@@](O)(C(=O)CO)C[C@@H]3O[C@H]1C[C@H](N)[C@H](O)[C@H](C)O1 [Doxorubicin, reference compound]	–	–	–	–	–	–	–	–	–	CC50 [4]: 26.2 ± 0.61 µM
O=C1c2ccccc2C(=O)c2ccccc21 [Anthraquinone]	> 64	inactive	–	–	> 64	> 100	–	> 64	64 (≈ 307 µM)	Antibacterial activity in words, all tested bacteria [6]: inactive; Gyr-B inhibition in words [5]: inactive
O=C1c2c(O)cccc2C([C@@H]2O[C@H](CO)[C@@H](O)[C@H](O)[C@H]2O)c2cc(CO)cc(O)c21 (stereo partly drawn) [Aloin]	> 64	weak inhibition	927 ± 7.4	529 ± 12.3	> 64	22.4 ± 2.1	10.5 ± 1.6	> 64	> 64	MIC ([6]; Escherichia coli, E. coli MDR, MRSA, VRSA): > 64 mg/L; CC50 [4, 9]: 34.7 ± 0.94 µM; Gyr-B inhibition in words [5]: weak inhibition
CO[C@@H]1[C@@H](OC(N)=O)[C@@H](O)[C@H](Oc2ccc3c(O)c(NC(=O)c4ccc(O)c(CC=C(C)C)c4)c(=O)oc3c2C)OC1(C)C [Novobiocin, reference compound]	1 (≈ 1.63 µM)	–	–	–	64 (≈ 104 µM)	–	–	64 (≈ 104 µM)	1 (≈ 1.63 µM)	–
CO/N=C(\C(=O)N[C@@H]1C(=O)N2C(C(=O)O)=C(COC(C)=O)CS[C@H]12)c1csc(N)n1 [Cefotaxime, reference compound]	–	–	–	–	–	–	–	–	–	MIC (antibiotic susceptibility) E. coli MDRb [1]: 64 mg/L (≈ 141 µM); MIC (antibiotic susceptibility) E. coli MDRa [2]: 32 mg/L (≈ 70.3 µM)
O=C1c2ccccc2C(=O)c2c(O)ccc(O)c21 [Quinizarin]	64 (≈ 266 µM)	moderately inhibited	515 ± 8.3	230 ± 8.3	64 (≈ 266 µM)	38.8 ± 2.3	17.9 ± 1.4	64 (≈ 266 µM)	16 (≈ 66.6 µM)	CC50 [4, 9]: 20.1 ± 0.56 µM; Gyr-B inhibition in words [5]: moderately inhibited; MIC [2, 10]: 64 mg/L (≈ 266 µM)
C[C@H]1COc2c(N3CCN(C)CC3)c(F)cc3c(=O)c(C(=O)O)cn1c23 [Levofloxacin, reference compound]	–	–	–	–	–	–	–	–	–	MIC (antibiotic susceptibility) E. coli MDRa [2]: 16 mg/L (≈ 44.3 µM)
CC1(C)S[C@@H]2[C@H](NC(=O)[C@H](N)c3ccccc3)C(=O)N2[C@H]1C(=O)O [Ampicillin, reference compound]	–	–	–	–	–	–	–	–	–	MIC (antibiotic susceptibility) E. coli MDRb [1]: > 64 mg/L; MIC (antibiotic susceptibility) E. coli MDRa [2]: > 64 mg/L
COc1ccc(Cc2nccc3cc(OC)c(OC)cc23)cc1OC [Papaverine]	> 64	–	–	–	> 64	> 100	–	> 64	> 64	Antibacterial activity in words, all tested bacteria [6]: inactive; CC50 [4]: 36.8 ± 0.93 µM
O=C1c2ccccc2C(=O)c2c1ccc(O)c2O [Alizarin]	–	moderately inhibited	468 ± 6.5	220 ± 4.3	–	17.9 ± 1.2	10.4 ± 1.1	–	–	MIC (MRSA (ATCC 25529)): 64 mg/L (≈ 266 µM); MIC [1]: > 64 mg/L; CC50 [4, 12]: 25.9 ± 0.69 µM; Gyr-B inhibition in words [5]: moderately inhibited; MIC ([2]; read-out: MIC E. coli): 64 mg/L (≈ 266 µM); MIC ([2]; read-out: MIC E. coli (MDR) a): 64 mg/L (≈ 266 µM); MIC (VRSA (clinical isolate)): > 64 mg/L; MIC VRSA (VRSA (clinical isolate); [7]): >64 mg/L
CC[C@H]1OC(=O)[C@H](C)[C@@H](O[C@H]2C[C@@](C)(OC)[C@@H](O)[C@H](C)O2)[C@H](C)[C@@H](O[C@@H]2O[C@H](C)C[C@H](N(C)C)[C@H]2O)[C@](C)(O)C[C@@H](C)CN(C)[C@H](C)[C@@H](O)[C@]1(C)O [Azithromycin, reference compound]	–	–	–	–	–	–	–	–	–	MIC (antibiotic susceptibility) E. coli MDRb [1]: 16 mg/L (≈ 21.4 µM)
O=C(O)c1cc(O)c2c(c1)C(=O)c1cccc(O)c1C2=O [Rhein]	> 64	more potent	–	–	2 (≈ 7.04 µM)	11.5 ± 1.2	7.33 ± 0.9	8 (≈ 28.1 µM)	8 (≈ 28.1 µM)	IC50 [3]: 281 ± 6.1 µM; Ki [3]: 133 ± 2.3 µM; CC50 [4, 12]: > 50 µM
COc1cc(O)c2c(c1)C(=O)c1cc(C)cc(O)c1C2=O [Physcion]	2 (≈ 7.04 µM)	more potent	244 ± 7.2	119 ± 9.1	2 (≈ 7.04 µM)	10.9 ± 0.5	6.6 ± 0.9	2 (≈ 7.04 µM)	2 (≈ 7.04 µM)	CC50 [4, 9]: > 50 µM
